Measurements: PubChem BioAssay (NCI)
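Five concentrations, 48 hours, 96-well plates. Abbreviation: GI50, concentration required for 50% inhibition of growth. TGI is the concentration that stops growth completely.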

How the values were obtained:
Assay in all cases: inhibition of tumour cell growth, NCI panel, 48 h
A498 renal = test system: A498 renal
A549 NSCLC = test system: A549 NSCLC
LOX IMVI melanoma = test system: LOX IMVI melanoma
RXF 393 renal = test system: RXF 393 renal
SK-MEL-2 melanoma = test system: SK-MEL-2 melanoma
SK-MEL-5 melanoma = test system: SK-MEL-5 melanoma
SNB-19 CNS = test system: SNB-19 CNS
MCF7 breast = test system: MCF7 breast
NCI/ADR-RES ovarian = test system: NCI/ADR-RES ovarian
T-47D breast = test system: T-47D breast

Row | SMILES | TGI (A498 renal) | TGI (A549 NSCLC) | TGI (LOX IMVI melanoma) | TGI (RXF 393 renal) | TGI (SK-MEL-2 melanoma) | TGI (SK-MEL-5 melanoma) | TGI (SNB-19 CNS) | TGI (MCF7 breast) | TGI (NCI/ADR-RES ovarian) | TGI (T-47D breast) | GI50 (A498 renal) | GI50 (A549 NSCLC) | GI50 (LOX IMVI melanoma) | GI50 (MCF7 breast) | GI50 (NCI/ADR-RES ovarian) | GI50 (SK-MEL-2 melanoma) | GI50 (SK-MEL-5 melanoma) | GI50 (SNB-19 CNS) | GI50 (T-47D breast) | GI50 (RXF 393 renal)
1 | Cc1c(NC(=S)NC(=O)c2ccc([N+](=O)[O-])cc2)c(=O)n(-c2ccccc2)n1C | > 100 µM | > 100 µM | > 100 µM | > 100 µM | > 100 µM | > 100 µM | > 100 µM |  |  |  |  |  |  |  |  |  |  |  |  | 
2 | COC(=O)c1c2c(cc3c1CC1(Cc4cc5c(c(C(C)=O)c4C1)CCC5)C3)CCC2 (stereo not given) |  | > 100 µM | > 100 µM | 95.7 µM |  | > 100 µM | > 100 µM |  |  |  |  |  |  |  |  |  |  |  |  | 
3 | C=CCC1=C(C)C[C@@H]2CCC(=O)C=C12 | > 100 µM | > 100 µM | > 100 µM | > 100 µM | > 100 µM | > 100 µM | > 100 µM |  |  |  |  |  |  |  |  |  |  |  |  | 
4 | O=C(Nn1c(-c2ccccc2)nc2ccccc2c1=O)c1ccccc1O | > 100 µM | > 100 µM | > 100 µM | > 100 µM |  | 84.3 µM | > 100 µM | > 100 µM | > 100 µM | > 100 µM |  |  |  |  |  |  |  |  |  | 
5 | CC1=NN(C(=O)c2ccc(Cl)cc2)C(=O)/C1=C/c1ccccc1O | > 100 µM | > 100 µM | > 100 µM | > 100 µM | > 100 µM | > 100 µM | > 100 µM |  |  |  |  |  |  |  |  |  |  |  |  | 
6 | Cc1nc(Nc2ccccn2)sc1C(=O)/C=C/c1ccc(Cl)cc1 | 0.626 µM | > 100 µM | > 40.8 µM |  | > 100 µM | 1.43 µM | > 100 µM | > 100 µM | > 100 µM | > 100 µM | 0.143 µM | 0.426 µM | 0.458 µM | 0.344 µM | 0.34 µM | 1.36 µM | 0.339 µM | 0.556 µM | 8.68 µM | 
7 | N.N.N.N.N.O=[N+]([O-])[O-].[Co+3].[O-][Cl+3]([O-])([O-])[O-] | > 100 µM | > 100 µM | > 100 µM |  | > 100 µM | > 100 µM | > 100 µM |  |  |  | > 100 µM | > 100 µM | > 100 µM |  |  | > 100 µM | > 100 µM | > 100 µM |  | 
8 | Cc1cc(N(CCC#N)CCC#N)ccc1N=Nc1ccc(Br)cc1 | 30 µM | > 45.9 µM | > 47.1 µM | 25.8 µM | 48.9 µM | 27.8 µM | > 57.6 µM |  |  |  |  |  |  |  |  |  |  |  |  | 
9 | COc1ccc(/C(Cl)=C/c2cc(OC)ccc2OC)cc1 | > 100 µM | > 100 µM |  | 69.6 µM |  | > 100 µM | > 100 µM |  |  |  |  |  |  |  |  |  |  |  |  | 
10 | Cc1nc2c(n1C)C(=O)c1ccccc1C2=O | > 100 µM | > 100 µM | > 100 µM |  | > 100 µM | 85.2 µM | > 100 µM | > 100 µM | > 100 µM | > 100 µM | > 100 µM | 21.5 µM | 38.5 µM | 46.1 µM | 81.7 µM | > 100 µM | 22 µM | 91.3 µM | 87.4 µM | 
11 | CC(=O)OCC(=O)[C@@]12OC(C)(C)O[C@@H]1C[C@H]1[C@@H]3CC(C=O)=C4C=C(OCCCl)CC[C@]4(C)[C@@]3(F)[C@@H](O)C[C@@]12C | 57.9 µM | > 100 µM | > 100 µM | 21.6 µM | 58.6 µM |  | > 100 µM |  |  |  |  |  |  |  |  |  |  |  |  | 
12 | CC(=O)O[C@]1(C)OC(=O)[C@@H](CC(C)C)N1[N+](=O)[O-] | > 100 µM | > 100 µM | > 100 µM | > 100 µM | > 100 µM | > 100 µM | > 100 µM |  |  |  |  |  |  |  |  |  |  |  |  | 
13 | CC(C)(C)C(=CS(=O)/N=C/c1ccccc1)C(C)(C)C (stereo not given) | > 100 µM | > 100 µM | 35.4 µM | 74.5 µM | 34.4 µM | 73 µM | > 100 µM |  |  |  |  |  |  |  |  |  |  |  |  | 
14 | O=c1[nH]c2ccccc2n1CCCN1CCC(n2c(=O)[nH]c3cc(Cl)ccc32)CC1 | 42.9 µM | 63.8 µM |  | 29.9 µM | 35.7 µM | 29.1 µM |  | 34.9 µM | 60.8 µM | 37.3 µM |  |  |  |  |  |  |  |  |  | 
15 | CCOC(=O)N1CCc2cc(OC)c(OC)cc2/C1=C\c1ccc(OC)c(OC)c1 | 68.5 µM | 80.5 µM | 40.3 µM | 54.2 µM | 67.6 µM |  | > 100 µM |  |  |  |  |  |  |  |  |  |  |  |  | 
16 | C=CCO/N=C(\OC(=O)c1ccc([N+](=O)[O-])cc1)c1ccccc1 | > 100 µM | > 100 µM |  |  | > 100 µM | > 100 µM | > 100 µM |  |  |  |  |  |  |  |  |  |  |  |  | 
17 | Cc1ccc(N=Nc2c(O)ccc3ccccc23)cc1 | > 100 µM | > 100 µM | > 100 µM | > 100 µM | > 100 µM | > 100 µM | > 100 µM |  | > 100 µM | > 100 µM |  |  |  |  |  |  |  |  |  | 
18 | COc1cc2c(cc1OC)C(=O)/C(=C/c1cc(-c3ccc4c(c3)OCO4)n[nH]1)C2 | 2.83 µM | 5.45 µM |  | 3.19 µM |  | 3.06 µM | 2.96 µM | 1.42 µM | 6.87 µM | 2.72 µM | 1.33 µM | 1.96 µM |  | 0.339 µM | 2.25 µM |  | 1.67 µM | 1.55 µM | 1.31 µM | 1.54 µM
19 | CC(=O)[O-].[Mn+3].[O-]c1ccccc1C=NCCNCCN=Cc1ccccc1[O-] |  | > 100 µM | > 100 µM | > 100 µM | > 100 µM | > 100 µM | > 100 µM |  |  |  |  | > 100 µM | > 100 µM |  |  | > 100 µM | > 100 µM | > 100 µM |  | > 100 µM
20 | CSCCCNC(=O)c1ccc2c(c1)/C(=C/c1[nH]c(C)cc1C)C(=O)N2 | 2.7 µM | > 100 µM | > 100 µM | 37.1 µM | 4.42 µM | > 100 µM | > 100 µM | > 100 µM |  | > 100 µM | 0.47 µM | 2.75 µM | 1.02 µM | 4.05 µM |  | 0.356 µM | 1.57 µM | 25.6 µM | 0.465 µM | 0.977 µM
21 | O=C1/C(=C/c2ccccc2)CN(C(=O)CCN2CCCC2)C/C1=C\c1ccccc1 | 13 µM | 14.6 µM | 1.85 µM | 5.24 µM | 8.41 µM | 3.48 µM | 6.69 µM | 2.63 µM |  | 5.61 µM |  |  |  |  |  |  |  |  |  | 
22 | COc1ccc(C(=O)C(CC2C(=O)NC(=O)NC2=O)c2ccc(OC)cc2)cc1 (stereo not given) | > 100 µM | > 100 µM | > 100 µM | > 100 µM | > 100 µM | > 100 µM | > 100 µM |  |  |  |  |  |  |  |  |  |  |  |  | 
